Results reported in US20080171764A1, “METHODS FOR PREVENTING, MANAGING, AND REVERSING DISEASE CAUSED BY INFLAMMATION MEDIATED VASCULAR LESIONS” (priority 2007, published 2008).

Tests used:
apoE−/− mice [1] = experiment: health status, body weight and re-suturing incidence post mini-pump surgery; assay type: in vivo
Description: (§1) ApoE^−/− mice (backcrossed ten times to the C57BL/6 background) were purchased from The Jackson Laboratory. The mice were kept on a twelve-hour light/twelve-hour dark regimen upon arrival. All animal experiments were approved by the IACUC of the Consumer & Personal Product Worldwide, in accordance with AAALAC guidelines. Eight week old, male apoE^−/− mice were fed a normal mouse-chow diet (RP5001; PMI Feeds Inc., St. Louis, Mo.) and acclimated for one week before switching to a pro-atherogenic high fat, high cholesterol, diet (“Western diet”, 21% fat, 0.2% cholesterol, diet No. 88137, Harlan-Teklad, Madison, Wis.) for four weeks.
(§2) Upon initiation of the pro-atherogenic diet, Alzet osmotic mini-pumps (Model 2004; ALZA Scientific Products, Mountain View, Calif.) were implanted into the apoE^−/− mice subcutaneously. The mini-pumps were loaded with angII (EMD Biosciences, San Diego, Calif.) at the delivery rate of 1,000 ng/min/kg for twenty-eight days. The mice were anesthetized using isoflurane for the implantation of the mini-pumps. Small incisions in the lower back of the neck were made and the mini-pumps were inserted into the subcutaneous space of the mice. The incisions were then closed using sterile staplers. Triple antibiotic ointment was applied to each incision post surgery. The mice on the high fat, high cholesterol diet were sacrificed by CO2 inhalation twenty-eight days post mini-pump implantation as is explained in detail subsequently.
(§3) Upon initiation of the pro-atherogenic diet and osmotic mini-pump implantation, mice were randomly assigned to four groups; namely, vehicle control, rapamycin or sirolimus 0.5 mg/kg, sirolimus 1.0 mg/kg and sirolimus 4.0 mg/kg body weight. The defined amount of sirolimus was dissolved in ethanol, brought up in a vehicle comprising 0.2 percent Sodium carboxymethylcellulose and 0.25 percent tween 80) and administrated to mice (i.p., daily).
The data is depicted as re-suturing incedince post surgery per group size. A clear increase of the suture index is observed in response to sirolimus administration in a dose dependent manner.

apoE−/− mice [2] = experiment: abdominal aortic adventitia lesion / AAA analysis (incidence, severity, diameter); assay type: in vivo
Description: as §1
as §2, with “subsequently. […]” for “subsequently.”
The abdominal aorta was subjected to abdominal aortic adventitia lesion analysis. […] Classification of the adventitia lesions was determined according to the scale based on the gross appearance of the aorta reported by Daugherty et al. Briefly, I: Dilated lumen in the supra-renal region of the aorta with no thrombus; II: Remodeled tissue in the supra-renal region that frequently contains thrombus; III: A pronounced bulbous form of type II that contains thrombus; IV: A form in which there are multiple adventitia lesions containing thrombus, some overlapping, in the suprarenal area of the aorta.

apoE−/− mice [3] = experiment: second study: established lesions, 8 weeks angII infusion and proatherogenic diet, en face analysis; assay type: in vivo; details: 1.0 mg/kg ip once daily for last 4 of 8 weeks; vehicle 37.6±2.7%, P<0.0001
Procedure: As stated above, the mice were sacrificed by CO2 inhalation and bled from the abdominal vena cava. The aortas were perfusion-fixed and post-fixed in 4 percent paraformaldehyde. Atherosclerosis quantitation was assessed using two independent methods: “en face” surface lesion analysis and aortic root analysis. The aortic arch and thoracic aorta (defined as above the last inter-costal artery) was subjected to “en face” analysis. Briefly, the aorta with major branches (left common carotid artery, right common carotid artery, left subclavian artery) was opened up. The lipid deposition in the inner aortic wall was stained in Sudan IV buffer. […] The extent of atherosclerosis is expressed as the percent of the aortic surface area covered by lesions. Aortic root analysis provided a second method verifying atherosclerosis quantitation. Briefly, alternate 8-μm frozen sections covering 300 μm of the proximal aorta, starting at the aortic sinus, were stained for atherosclerotic lesions with oil red O. Images of oil red O-stained aortic root sections were captured and analyzed using Image-Pro 6.0 analysis software. All samples were coded by one investigator and analyzed by another investigator who is completely blinded to the codes. […]

apoE−/− mice [4] = experiment: atherosclerosis quantitation, en face surface lesion analysis (Sudan IV), 4-week study; assay type: in vivo; details: 1.0 mg/kg ip once daily, vehicle 12.9±1.8%, P<0.0005
Description: ApoE^−/− mice (backcrossed ten times to the C57BL/6 background) were purchased from The Jackson Laboratory. The mice were kept on a twelve-hour light/twelve-hour dark regimen upon arrival. All animal experiments were approved by the IACUC of the Consumer & Personal Product Worldwide, in accordance with AAALAC guidelines. Eight week old, male apoE^−/− mice were fed a normal mouse-chow diet (RP5001; PMI Feeds Inc., St. Louis, Mo.) and acclimated for one week before switching to a pro-atherogenic high fat, high cholesterol, diet (“Western diet”, 21% fat, 0.2% cholesterol, diet No. 88137, Harlan-Teklad, Madison, Wis.) for four weeks. […]
As stated above, the mice were sacrificed by CO2 inhalation and bled from the abdominal vena cava. […] Atherosclerosis quantitation was assessed using two independent methods: “en face” surface lesion analysis and aortic root analysis. […] The extent of atherosclerosis is expressed as the percent of the aortic surface area covered by lesions. Aortic root analysis provided a second method verifying atherosclerosis quantitation. Briefly, alternate 8-μm frozen sections covering 300 μm of the proximal aorta, starting at the aortic sinus, were stained for atherosclerotic lesions with oil red O. Images of oil red O-stained aortic root sections were captured and analyzed using Image-Pro 6.0 analysis software. […]

[5] = plasma lipids (total cholesterol, triglycerides, LDL and HDL cholesterol); assay type: in vivo, mice
Description: as §1
Upon initiation of the pro-atherogenic diet, Alzet osmotic mini-pumps (Model 2004; ALZA Scientific Products, Mountain View, Calif.) were implanted into the apoE^−/− mice subcutaneously. The mini-pumps were loaded with angII (EMD Biosciences, San Diego, Calif.) at the delivery rate of 1,000 ng/min/kg for twenty-eight days. The mice were anesthetized using isoflurane for the implantation of the mini-pumps. […]
Plasma triglyceride and total cholesterol levels were determined via an automated enzymatic technique (Equal Diagnostic Inc., Exton, Pa.). […] Aliquots of mouse plasma (100 μl) were injected onto the column, separated with a buffer containing 0.15 M NaCl, 0.01 M Na2HPO4, and 0.1 mM EDTA (pH 7.5) at a flow rate of 0.5 mL/min, and analyzed for lipids.

[6] = sirolimus whole blood pharmacokinetics in apoE-/- mice (LC-MS/MS); assay type: in vivo; details: i.p. daily, 0.5, 1.0 and 4.0 mg/kg
Procedure: as §3
Sirolimus was quantitated using liquid-liquid extraction and reverse-phase liquid chromatography mass spectrometry (LC-MS/MS). Briefly, 100 μl of mouse whole blood sample underwent protein precipitation with 5 percent Methanol/Zinc sulfate solution containing the internal standard ascomycin. After centrifugation of the resulting solution, the liquid mixture proceeded with liquid-liquid extraction with 1-chlorobutane. The combined organic extract was then blown down to dryness and reconstituted with 50:50 Methanol:20 mM ammonium acetate solution. The samples were analyzed on API-5000 using C18 reverse-phase chromatography in Multiple Reaction Monitoring (MRM) mode using atmospheric pressure chemical ionization (ApCI) approach. The calibration standard curve results for sirolimus in mouse whole blood were acceptable from 0.5 ng/ml to 10,000 ng/ml with correlation coefficient of 0.998. […]

## CO[C@H]1C[C@@H]2CC[C@@H](C)[C@@](O)(O2)C(=O)C(=O)N2CCCC[C@H]2C(=O)O[C@H]([C@H](C)C[C@@H]2CC[C@@H](O)[C@H](OC)C2)CC(=O)[C@H](C)/C=C(\C)[C@@H](O)[C@@H](OC)C(=O)[C@H](C)C[C@H](C)/C=C/C=C/C=C/1C [sirolimus]
apoE−/− mice [1]; 0.5, 1.0 and 4.0 mg/kg i.p. daily
  incidence of re-suturing post surgery for mini-pump implantation (wound healing): increased incidence of re-suturing
apoE−/− mice [1]; all 3 sirolimus treated groups vs vehicle control
  body weight: trend of decreased body weight
apoE−/− mice [1]; apoE−/− mice, i.p. daily, 0.5, 1.0 and 4.0 mg/kg, 4 weeks
  health status: not overtly affected
apoE−/− mice [2]; 1 of 22 mice receiving sirolimus, vehicle control 30 percent (3 of 10)
  incidence of abdominal aortic adventitia lesion: 4.5%
apoE−/− mice [2]; vehicle 1.38±0.25 mm, P<0.005
  severity of AAA as determined by aortic diameter: 0.74±0.02 mm
apoE−/− mice [2]; vehicle 32%, P<0.005
  incidence of AAA: 0%
apoE−/− mice [3]
  atherosclerotic plaque area (en face analysis) of established lesions at 8 weeks: 18.4±2.3%
apoE−/− mice [4]
  atherosclerotic plaque area (en face analysis) at 4 weeks: 3.1±0.4%
[5]; all sirolimus treated mice vs vehicle control
  elevation of LDL cholesterol: > 60%
[5]; regardless of the dosage employed
  plasma triglyceride: trend of elevated triglyceride
[6]
  time of peak whole blood drug level post injection: 1 h
[6]; 24 hours post injection
  whole blood drug level at 24 hours: trace level
